The conditions of the series: 100 kPa, Liquid, Vibrating tube method.

Each structure is given as a SMILES string. Numbers after ± are expanded uncertainties.

For `CCOCCOCCOC(C)=O` [2-(2-ethoxyethoxy)ethyl acetate], the mass density by setting is: (293.15 K) 1009.46 ± 0.25 kg/m3; (303.15 K) 999.19 ± 0.24 kg/m3; (313.15 K) 988.92 ± 0.24 kg/m3; (323.15 K) 978.66 ± 0.24 kg/m3; (333.15 K) 968.38 ± 0.24 kg/m3.

With `CCCCOCCOC(C)=O` [2-butoxyethyl acetate], the mass density is listed as 940.7 ± 0.77 kg/m3 (293.15 K); 930.89 ± 0.76 kg/m3 (303.15 K); 921.05 ± 0.75 kg/m3 (313.15 K); 911.18 ± 0.74 kg/m3 (323.15 K); 901.29 ± 0.73 kg/m3 (333.15 K).

The values above are taken from the NIST ThermoML archive (doi:10.1016/j.fluid.2014.02.029).
